We go through 13 compounds from EP0971717B1, “CYTOTOXIC AMINO SUGAR AND RELATED SUGAR DERIVATIVES OF INDOLOPYRROLOCARBAZOLES” (Bristol-Myers Squibb Company, priority 1996, dated 1998).

Assay [1] deals with T1, purified human topoisomerase I (Homo sapiens, UniProt P11387).
T1 construct: purchased Topogen
T1 sequence (P11387 1-765): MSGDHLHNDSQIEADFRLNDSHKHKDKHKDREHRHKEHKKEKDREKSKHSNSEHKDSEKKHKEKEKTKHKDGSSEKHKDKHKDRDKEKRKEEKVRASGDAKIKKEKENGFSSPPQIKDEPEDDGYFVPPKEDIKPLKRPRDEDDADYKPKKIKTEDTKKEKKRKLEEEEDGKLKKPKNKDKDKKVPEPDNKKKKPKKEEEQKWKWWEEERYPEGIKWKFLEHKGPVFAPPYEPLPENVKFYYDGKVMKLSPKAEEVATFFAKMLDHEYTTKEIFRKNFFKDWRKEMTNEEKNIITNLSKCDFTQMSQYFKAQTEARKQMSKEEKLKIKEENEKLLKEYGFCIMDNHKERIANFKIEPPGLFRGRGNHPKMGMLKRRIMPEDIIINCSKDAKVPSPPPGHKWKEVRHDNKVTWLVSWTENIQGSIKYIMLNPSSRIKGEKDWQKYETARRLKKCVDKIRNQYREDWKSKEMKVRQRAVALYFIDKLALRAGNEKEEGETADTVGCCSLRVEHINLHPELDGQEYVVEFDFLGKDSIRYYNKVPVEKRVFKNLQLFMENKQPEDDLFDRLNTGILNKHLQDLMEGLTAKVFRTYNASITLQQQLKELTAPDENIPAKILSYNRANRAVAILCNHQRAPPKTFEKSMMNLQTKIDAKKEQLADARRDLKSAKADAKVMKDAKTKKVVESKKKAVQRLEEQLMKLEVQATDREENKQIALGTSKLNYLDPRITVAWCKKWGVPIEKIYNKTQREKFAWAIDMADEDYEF
The assay can be described thus: Topoisomerase I mediated single strand break formation in DNA (in vitro). Format: biochemical. The conditions noted are these: for EC50: PM2 DNA, 30 minutes at 37° C, median effective concentration for single strand DNA break formation; for Topo-I activity: result in words. On the procedure: Samples dissolved in 100% DMSO as either […] or 10 mg/ml solutions, unless otherwise stated, were diluted in Tris-EDTA buffer. Marine bacteriophage PM2 DNA (Boehringer Mannheim) was also diluted in Tris-EDTA buffer to a concentration of 0.02 µg/µl. Different dilutions of compound being evaluated were mixed with diluted DNA and this mixture was added to 1000 unit (one unit of enzyme activity is defined as the amount capable of relaxing 100 ng of supercoiled DNA in approximately 30 minutes at 37°C) aliquots of purified human topoisomerase I (Topogen) in 2X reaction buffer to start the reaction. The compound - DNA - enzyme mixture was incubated for 30 minutes at 37° C before stopping the reaction with warm stop buffer containing sodium dodecyl sulfate and proteinase K (Sigma). These mixtures were allowed to incubate at 37° C for another 10 minutes, at which time the mixtures were removed from the waterbath and extracted with a 24:1 mixture of chloroform/isoamyl alcohol. Following centrifugation, aliquots of the aqueous phases were placed in wells of a 0.9% agarose (SeaKem) gel in Tris-borate buffer containing 0.5 µg/ml of ethidium bromide and subjected to electrophoresis for 15 hours to separate the different topological isomers and nicked and broken DNAs. After destaining the gel in water, the ethidium bromide stained DNA reaction products were visualized by exposing the gel to UV irradiation. Negatives of photographs of the irradiated gels were scanned with a densitometer and areas under the peaks were calculated in order to obtain percent single strand DNA break formation for each sample. A median effective concentration(EC50) was obtained for each compound by interpolation between points of the resulting dose - effect curve which defines the potency of the compound for its effect for inducing topoisomerase I mediated single strand breaks in DNA.

Assay [2] has as its system HCT116 human colon carcinoma cells. The assay can be described thus: In-vitro cell-based cytotoxicity, XTT assay. The conditions noted are these: HCT-116, 72 hrs incubation, absorbance at 450 nm. On the procedure:
The proliferation inhibition activity against human colon cell line was measured as follows.
Cytotoxicity was assessed in HCT116 human colon carcinoma cells by XTT (2,3-bis(2-methoxy-4-nitro- 5-sulfophenyl)-5-[(phenylamino)carbonyl]-2H-tetrazolium hydroxide assay as described in the literature by Scudiero, DA, Shoemaker, RH, Paull, KD, Monks, A, Tierney, S, Nofziger, TH, Currens, MJ, Seniff, D, and Boyd, MR. Evaluation of a soluble tetrazolium/formazan assay for cell growth and drug sensitivity in culture using human and other tumor cell lines, was done according to the procedure described in Cancer Res. 48: 4827-4833, 1988. Cells were plated at 4000 cells/well in 96 well microtiter plates and 24 hrs later drugs were added and serial diluted. The cells were incubated at 37° C for 72 hrs at which time the tetrazolium dye, XTT, containing phenazine methosulfate was added. A dehydrogenase enzyme in live cells reduces the XTT to a form that absorbs light at […] which can be quantitated spectrophotometrically. The greater the absorbance the greater the number of live cells. The results are expressed as an IC50 which is the drug concentration required to inhibit cell proliferation (i.e. absorbance at 450 nm) to 50% of that of untreated control cells.
A general note: Formazan colour is commonly taken as a measure of viable cells.

A further assay concerns P388 leukemia cells. Kind of assay: In-vivo anti-tumor efficacy against ip implanted P388 leukemia. The conditions noted are these: for T/C (%): ip, MST(T)/MST(C) x 100, activity defined as >= 125%; for MST: one ip injection one day after implant, median survival time of treated mice. Also on record: species or system mice (BDF1 or CDF1); MST: unit not given here. On the procedure: In-vivo antitumor experiments were initiated by implanting mice (BDF1 or CDF1) ip with 10(6) P388 leukemia cells. Treatments were initiated one day after implant and involved one ip injection per dose level; several dose levels were evaluated per compound. Six mice were typically used per dose level in treatment groups, and eight to ten mice were used as parallel untreated leukemic controls. Evaluation of activity was made on the basis of comparing the median survival time (MST) of treated (T) mice with the MST of control (C) mice. Activity was defined as a %T/C of > or = 125%, calculated as: MST(T)/MST(C) x 100 = %T/C Table I

As a reminder, the EC50 is the concentration that produces a half-maximal response. As usually defined, the IC50 is the point on the concentration scale where inhibition reaches its midpoint.

Take `CS(=O)(=O)OC[C@H]1O[C@@H](n2c3ccc(F)cc3c3c4c(c5c6cc(F)ccc6[nH]c5c32)C(=O)NC4=O)[C@H](O)[C@@H](O)[C@@H]1O` [Example 15, 3,9-Difluoro-12,13-dihydro-13-[6-O-(methylsulfonyl)-β-D-glucopyranosyl]-5H-indolo[2,3-a]pyrrolo[3,4-c]carbazole-5,7(6H)-dione]: the midpoint of the response in assay [1], the EC50, lay at 30 nM. In assay [2], the concentration for half-maximal inhibition (IC50) was found to be 260 nM.

Consider `NC[C@H]1O[C@@H](n2c3cc(F)ccc3c3c4c(c5c6ccc(F)cc6[nH]c5c32)C(=O)N(N)C4=O)[C@H](O)[C@@H](O)[C@@H]1O` [Example 18, 6-Amino-13-(6-amino-6-deoxy-β-D-glucopyranosyl)-2,10-difluoro-12,13-dihydro-5H-indolo[2,3-a]pyrrolo[3,4-c]carbazole-5,7(6H)-dione], for which, in assay [1], the “Topo-I activity (concentration without activity)” value is recorded as “greater than 100 micro molar” and the concentration for a half-maximal effect (EC50) was above 100000 nM. This compound gave an IC50 in assay [2] above 1450 nM.

As for `NC[C@H]1O[C@@H](n2c3ccc(F)cc3c3c4c(c5c6cc(F)ccc6[nH]c5c32)C(=O)NC4=O)[C@H](O)[C@@H](O)[C@@H]1O` [Example 19], the “T/C (%)” value in the assay on P388 leukemia cells (P388, 25 mg/kg/dose) is on record as 155%; with P388 leukemia cells (P388, 50 mg/kg/dose), 168%; with P388 leukemia cells (P388, 100 mg/kg/dose), 182%; in the assay on P388 leukemia cells (P388, 200 mg/kg/dose), 82%. Besides, the MST in the assay with P388 leukemia cells (P388, 25 mg/kg/dose) was 17.0; in the assay on P388 leukemia cells (P388, 50 mg/kg/dose), 18.5; in the assay with P388 leukemia cells (P388, 100 mg/kg/dose), 20.0; in the assay with P388 leukemia cells (P388, 200 mg/kg/dose), 9.0. Also, the anti-tumor activity entry with P388 leukemia cells (result in words) is “effective anti-tumor agent”. The EC50 in assay [1] stood at 40 nM. In addition, the Topo-I activity entry in assay [1] is reported as “sub micro molar”. Moreover, the IC50 in assay [2] worked out at 110 nM.

In the case of `O=C1NC(=O)c2c1c1c3cc(F)ccc3[nH]c1c1c2c2cc(F)ccc2n1[C@@H]1O[C@H](CN2CCOCC2)[C@@H](O)[C@H](O)[C@H]1O` [Example 29, 3,9-Difluoro-12,13-dihydro-13-[6-(4N-morpholino)-β-D-glucopyranosyl]-5H-indolo[2,3-a]pyrrolo [3,4-c] carbazole-5,7(6H)-dione], the “T/C (%)” value is 127% in the assay with P388 leukemia cells (P388, 25 mg/kg/dose); 109% in the assay with P388 leukemia cells (P388, 50 mg/kg/dose); 150% in the assay with P388 leukemia cells (P388, 100 mg/kg/dose); 91% in the assay with P388 leukemia cells (P388, 200 mg/kg/dose). Moreover, the MST with P388 leukemia cells (P388, 25 mg/kg/dose) was 14.0; in the assay on P388 leukemia cells (P388, 50 mg/kg/dose) it was 12.0; in the assay with P388 leukemia cells (P388, 100 mg/kg/dose), 16.5; with P388 leukemia cells (P388, 200 mg/kg/dose), 10. The compound further gave a 50% effective concentration (EC50) in assay [1] of 10 nM. The compound also displayed an IC50 in assay [2] of 90 nM.

In turn, `[N-]=[N+]=NC[C@H]1O[C@@H](n2c3ccc(F)cc3c3c4c(c5c6cc(F)ccc6[nH]c5c32)C(=O)N(O)C4=O)[C@H](O)[C@@H](O)[C@@H]1O` [Example 30, 3,9-Difluoro-12,13-dihydro-13-[6-azido-β-D-glucopyranosyl]-5H-indolo[2,3-a]pyrrolo [3,4-c] carbazole-5,7(6-hydroxy)dione] showed an EC50 in assay [1] below 10 nM.

With `NC[C@H]1O[C@@H](n2c3ccc(F)cc3c3c4c(c5c6cc(F)ccc6[nH]c5c32)C(=O)N(O)C4=O)[C@H](O)[C@@H](O)[C@@H]1O` [Example 31, 3,9-Difluoro-12,13-dihydro-13-[6-amino-β-D-glucopyranosyl]-5H-indolo[2,3-a]pyrrolo [3,4-c] carbazole-5,7(6-hydroxy)dione], the EC50 in assay [1] was below 10 nM.

Turning to `O=C1NC(=O)c2c1c1c3cc(F)ccc3[nH]c1c1c2c2cc(F)ccc2n1[C@@H]1O[C@H](Cn2ccnc2)[C@@H](O)[C@H](O)[C@H]1O` [Example 34], in assay [1], a half-maximal response (EC50) required 23000 nM.

`CN1CCN(C[C@H]2O[C@@H](n3c4ccc(F)cc4c4c5c(c6c7cc(F)ccc7[nH]c6c43)C(=O)NC5=O)[C@H](O)[C@@H](O)[C@@H]2O)CC1` [Example 35] came in with a concentration giving a half-maximal response (EC50) in assay [1] of 750 nM. This compound also came in with an IC50 in assay [2] of 500 nM.

In assay [1], `O=C1NC(=O)c2c1c1c3cc(F)ccc3[nH]c1c1c2c2cc(F)ccc2n1[C@@H]1O[C@H](CF)[C@@H](O)[C@H](O)[C@H]1O` [Example 47] came in with an EC50 of 100 nM.

In the case of `O=C1c2c(c3c4cc(F)ccc4n([C@@H]4O[C@H](CF)[C@@H](O)[C@H](O)[C@H]4O)c3c3[nH]c4ccc(F)cc4c23)C(=O)N1O` [Example 48], the EC50 in assay [1] came out at 400 nM.

Compound `CCN(CC)C[C@H]1O[C@@H](n2c3ccc(F)cc3c3c4c(c5c6cc(F)ccc6[nH]c5c32)C(=O)N(O)C4=O)[C@H](O)[C@@H](O)[C@@H]1O` [Example 68] yielded an EC50 in assay [1] of 30 nM.

Take `O=C1c2c(c3c4cc(F)ccc4n([C@@H]4O[C@H](CF)[C@@H](O)[C@H](O)[C@H]4O)c3c3sc4ccc(F)cc4c23)C(=O)N1O` [Example 69]: a half-maximal effect in assay [1] (EC50) was put at 30 nM.

For `CO[C@H]1[C@H](O)[C@@H](O)[C@H](n2c3c(Cl)cccc3c3c4c(c5c6cccc(Cl)c6[nH]c5c32)C(=O)NC4=O)O[C@@H]1CO` [rebeccamycin, reference compound], the Topo-I activity result in assay [1] was “not Topo-I active”.
